{"source": "patent US20220091133A1", "about": "“METHODS AND ASSAYS FOR IMMUNE PHENOTYPING” (Washington University, priority 2020, published 2022)", "key": {"[1]": {"test_system": "SARS-CoV-2", "assay": "COVID-19-specific antibody levels (Example 5)", "type": "in vivo, human", "conditions": "critically ill COVID-19 patient"}, "[2]": {"test_system": "PBMCs (myeloid cell TNF-α production)", "assay": "PBMC ELISpot, LPS-stimulated TNF-α production (Example 2)", "type": "cell-based, human", "description": "Fresh whole blood samples were processed within 90 min of collection as previously described (28). Briefly, blood was diluted in an equal volume of PBS and layered carefully on Ficoll Paque PLUS (GE Healthcare). The PBMC fraction was isolated following centrifugation at 500×g for 30 min at room temperature. The number of total PBMCs was determined with a Vi-CELL Viability Analyzer (Beckman Coulter, Brea, Calif.). Flow cytometry was performed on PBMC fraction for cell typing.\nInnate and adaptive immune function was assessed using ELISpot analysis by measurement of the production of IFN-γ and TNF-α in ex vivo-stimulated cells following overnight culture. Capture Ab precoated 96-well polyvinylidene difluoride-backed strip plates were used for single color enzymatic assays (ImmunoSpot; Cellular Technology [CTL], Cleveland, Ohio) for detection of human IFN-γ and TNF-α. ELISpot culture procedure was followed as directed using instructions from the ELISpot kit. Samples were run in duplicate for each test condition. Plates were prepared with stimulant and were incubated at 37° C. and 5% CO2 for 30 min prior to plating cells. Identical conditions were prepared for comparison of whole blood assay to PBMC assay, and culture media alone was used as a negative control. Combination of 500 ng/ml of anti-CD3 (clone HIT3a; BioLegend) with 2.5 μg/ml of anti-CD28 (clone CD28.2; BioLegend) Abs were used to induce IFN-γ, and 2.5 ng/ml LPS (from Salmonella abortus equi S-form, ALX-581-009; Enzo Life Sciences, Farmingdale, N.Y.) was used to induce TNF-α wells. Total well volume for all samples was 200 μl. PBMCs were plated into wells in quantities of 2.5×10^4 cells per well for IFN-γ and 2.5×10^3 cells per well for TNF-α. […]\nSamples were scanned, analyzed, and quality controlled for spot count, spot area, and TWI using a Cellular Technology series 6 ImmunoSpot Universal Analyzer with ImmunoSpot 7.0 professional software (Cellular Technology Analyzers, Shaker Heights, Ohio). […]\nThe number of cytokine-secreting cells present in each ELISpot well is referred to as spot-forming units (SFU) and is reported in two distinct ways. […] The number of lymphocytes in each well was determined based upon the absolute lymphocyte count as measured by the patients' complete blood count. For ELISpot studies involving PBMCs, flow cytometry was performed on the PBMC fraction, and the number of lymphocytes, monocytes, and residual neutrophils were determined. […] Samples were acquired on FACScan (Becton Dickenson, Franklin Lakes, N.J.) with a five-color modification (CyTek Biosciences, Fremont, Calif.) and analyzed using FlowJo 10.2 (FlowJo, Ashland, Oreg.) as previously described (28). […]"}}, "data": [{"substance": "IL-7: recombinant human IL-7, immunoadjuvant and potent T cell activator; R&D Systems ex vivo, RevImmune for patients", "values": [{"measurement": "Coronavirus disease immunoglobulin G/M/A", "setting": "[1]; Post IL-7, Day 12", "value": "High positive"}, {"measurement": "Coronavirus disease immunoglobulin G/M/A", "setting": "[1]; Post IL-7, Day 21", "value": "High positive"}, {"measurement": "septic patients in whom IL-7 increased TNF-α production", "setting": "[2]; PBMC ELISpot, patients out of total", "value": "13/19"}, {"measurement": "change in TNF-α SFUs with IL-7", "setting": "[2]; PBMC, CINS", "value": "significant increase"}, {"measurement": "change in TNF-α SFUs with IL-7", "setting": "[2]; PBMCs, healthy subjects", "value": "no change"}, {"measurement": "overall increase in TNF-α SFUs with IL-7", "setting": "[2]; PBMCs, septic patients, p<0.01", "value": 97, "unit": "%"}]}]}
